From patent publication US12391737B2, “Soluble NPY2 receptor agonists” (Boehringer Ingelheim International GmbH, priority 2020, dated 2025)

Columns and labels:
[1] = biological target: T1, Human Neuropeptide Y2 Receptor (Homo sapiens, UniProt P49146); assay: Radioligand binding competition assay (RLB); details: Table 3, 125I-PYY(1-36) competition; read-out: Ki
T1 construct: purchased CHEMICON HTS066M
T1 sequence (P49146 1-381): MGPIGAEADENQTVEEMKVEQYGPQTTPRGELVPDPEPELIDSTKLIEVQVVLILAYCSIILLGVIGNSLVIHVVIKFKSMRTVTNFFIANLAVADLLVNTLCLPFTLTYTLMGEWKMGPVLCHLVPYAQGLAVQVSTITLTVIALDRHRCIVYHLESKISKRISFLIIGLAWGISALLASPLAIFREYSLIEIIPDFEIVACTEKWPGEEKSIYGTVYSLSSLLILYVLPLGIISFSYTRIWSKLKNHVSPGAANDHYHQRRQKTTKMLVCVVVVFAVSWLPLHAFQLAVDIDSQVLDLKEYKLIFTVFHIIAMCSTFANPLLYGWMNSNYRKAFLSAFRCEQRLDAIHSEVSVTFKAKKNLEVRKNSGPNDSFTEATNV
Outline: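 Filtration binding assay on human Y2 receptor membrane preparation, 0.5 μg protein per well, in 50 mM HEPES pH 7.4 containing 5 mM MgCl2, 1 mM CaCl2 and 0.2% ovalbumin. Plates shake 2 h at room temperature before harvest and scintillation counting.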

Solubility determination = details: for Sol6: pH 6; for Sol7: pH 7
Outline: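 First, TFA-salt peptide was added to 0.1 M sodium diphosphate (pH 6.4 or 7.0) to 10 mg/ml and shaken 2 h at room temperature. Next, insoluble material was filtered off. Finally, filtrate and control, each 1 mg/ml in 50% acetonitrile, were compared by reversed-phase chromatography.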

Compound | Ki [1] [nM] | Sol6 (Solubility determination) [mg/mL] | Sol7 (Solubility determination) [mg/mL]
CC(C)CC(=O)N[C@@H](C)C(=O)N1CCC[C@H]1C(=O)N[C@@H](C)C(=O)N[C@@H](CCCCNC(=O)CCCCCNC(=O)CC[C@H](NC(=O)CCCCCCCCCCCCCCCCC(=O)O)C(=O)O)C(=O)N1CCC[C@H]1C(=O)N[C@@H](CCC(=O)O)C(=O)N[C@@H](CCC(=O)O)C(=O)N[C@@H](CC(=O)O)C(=O)N[C@@H](C)C(=O)N[C@@H](CO)C(=O)N[C@@H](CCC(=O)O)C(=O)N[C@@H](CCC(=O)O)C(=O)N[C@@H](CCC(=O)O)C(=O)N[C@@H](CC(C)C)C(=O)N[C@@H](CCC(N)=O)C(=O)N[C@@H](CCCNC(=N)N)C(=O)N[C@@H](Cc1ccc(O)cc1)C(=O)N[C@@H](Cc1ccc(O)cc1)C(=O)N[C@H](C(=O)N[C@@H](CO)C(=O)N[C@@H](CC(C)C)C(=O)N[C@@H](CCCNC(=N)N)C(=O)N[C@@H](Cc1c[nH]cn1)C(=O)N[C@@H](Cc1ccc(O)cc1)C(=O)N[C@@H](Cc1ccc(O)cc1)C(=O)N[C@@H](CC(N)=O)C(=O)N[C@@H](Cc1c[nH]c2ccccc12)C(=O)N[C@@H](CC(C)C)C(=O)N[C@H](C(=O)N[C@@H](CCCNC(=N)N)C(=O)N[C@@H](CCC(N)=O)C(=O)N[C@@H](CCCNC(=N)N)C(=O)N[C@@H](Cc1ccc(O)cc1)C(N)=O)[C@@H](C)O)C(C)C [Compound 185, N{alpha-4}-(3-methylbutanoyl)-N{epsilon-7}-(6-[(4S)-4-carboxy-4-(17-carboxyheptadecanamido)butanamido]hexanoyl)-[4A,6A,7K,9E,14E,18Q,22V,28Y,30W,31L]-hPYY(4-36)] | 2.06 | 8.7 | 8.9
CC(C)CC(=O)N[C@@H](C)C(=O)N1CCC[C@H]1C(=O)N[C@@H](CCC(=O)O)C(=O)N[C@@H](CCCCNC(=O)CCCCCNC(=O)CC[C@H](NC(=O)CCCCCCCCCCCCCCCCC(=O)O)C(=O)O)C(=O)N1CCC[C@H]1C(=O)N[C@@H](CCC(=O)O)C(=O)N[C@@H](CCC(=O)O)C(=O)N[C@@H](CC(=O)O)C(=O)N[C@@H](C)C(=O)N[C@H](C(=O)N1CCC[C@H]1C(=O)N[C@@H](CCC(=O)O)C(=O)N[C@@H](CCC(=O)O)C(=O)N1CCC[C@H]1C(=O)N[C@@H](CCC(N)=O)C(=O)N[C@@H](CCCNC(=N)N)C(=O)N[C@@H](Cc1ccc(O)cc1)C(=O)N[C@@H](Cc1ccc(O)cc1)C(=O)N[C@H](C(=O)N[C@@H](CO)C(=O)N[C@@H](CC(C)C)C(=O)N[C@@H](CCCNC(=N)N)C(=O)N[C@@H](Cc1c[nH]cn1)C(=O)N[C@@H](Cc1ccc(O)cc1)C(=O)N[C@@H](Cc1ccc(O)cc1)C(=O)N[C@@H](CC(N)=O)C(=O)N[C@@H](Cc1c[nH]c2ccccc12)C(=O)N[C@@H](CC(C)C)C(=O)N[C@H](C(=O)N[C@@H](CCCNC(=N)N)C(=O)N[C@@H](CCC(N)=O)C(=O)N[C@@H](CCCNC(=N)N)C(=O)N[C@@H](Cc1ccc(O)cc1)C(N)=O)[C@@H](C)O)C(C)C)[C@@H](C)O [Compound 187, N{alpha-4}-(3-methylbutanoyl)-N{epsilon-7}-(6-[(4S)-4-carboxy-4-(17-carboxyheptadecanamido)butanamido]hexanoyl)-[4A,7K,9E,13T,17P,18Q,22V,28Y,30W,31L]-hPYY(4-36)] | 15.3 | 7.8 | >10.0
CC(C)CC(=O)N[C@@H](C)C(=O)N1CCC[C@H]1C(=O)N[C@@H](CCC(=O)O)C(=O)N[C@@H](CCCCNC(=O)CCCCCNC(=O)CC[C@H](NC(=O)CCCCCCCCCCCCCCCCC(=O)O)C(=O)O)C(=O)N1CCC[C@H]1C(=O)N[C@@H](CCC(=O)O)C(=O)N[C@@H](CCC(=O)O)C(=O)N[C@@H](CC(=O)O)C(=O)N[C@@H](C)C(=O)N[C@H](C(=O)N1CCC[C@H]1C(=O)N[C@@H](CCC(=O)O)C(=O)N[C@@H](CCC(=O)O)C(=O)N[C@@H](CC(C)C)C(=O)N[C@@H](CCC(N)=O)C(=O)N[C@@H](CCCNC(=N)N)C(=O)N[C@@H](Cc1ccc(O)cc1)C(=O)N[C@@H](Cc1ccc(O)cc1)C(=O)N[C@H](C(=O)N[C@@H](CO)C(=O)N[C@@H](CC(C)C)C(=O)N[C@@H](CCCNC(=N)N)C(=O)N[C@@H](Cc1c[nH]cn1)C(=O)N[C@@H](Cc1ccc(O)cc1)C(=O)N[C@@H](Cc1ccc(O)cc1)C(=O)N[C@@H](CC(N)=O)C(=O)N[C@@H](Cc1c[nH]c2ccccc12)C(=O)N[C@@H](CC(C)C)C(=O)N[C@@H](CCC(N)=O)C(=O)N[C@@H](CCCNC(=N)N)C(=O)N[C@@H](CCC(N)=O)C(=O)N[C@@H](CCCNC(=N)N)C(=O)N[C@@H](Cc1ccc(O)cc1)C(N)=O)C(C)C)[C@@H](C)O [Compound 188, N{alpha-4}-(3-methylbutanoyl)-N{epsilon-7}-(6-[(4S)-4-carboxy-4-(17-carboxyheptadecanamido)butanamido]hexanoyl)-[4A,7K,9E,13T,18Q,22V,28Y,30W,31L,32Q]-hPYY(4-36)] | 5.46 | 9.5 | 9.8
CC[C@H](C)[C@H](NC(=O)[C@H](Cc1ccc(O)cc1)NC(=O)[C@H](Cc1ccc(O)cc1)NC(=O)[C@H](CCCNC(=N)N)NC(=O)[C@H](CCC(N)=O)NC(=O)[C@H](CC(C)C)NC(=O)[C@H](CCC(=O)O)NC(=O)[C@H](CCC(=O)O)NC(=O)[C@@H]1CCCN1C(=O)[C@@H](NC(=O)[C@H](C)NC(=O)[C@H](CC(=O)O)NC(=O)[C@H](CCC(=O)O)NC(=O)[C@H](CCC(=O)O)NC(=O)[C@@H]1CCCN1C(=O)[C@H](CCCCNC(=O)CCCCCNC(=O)CC[C@H](NC(=O)CCCCCCCCCCCCCCCCC(=O)O)C(=O)O)NC(=O)[C@H](C)NC(=O)[C@@H]1CCCN1C(=O)[C@H](C)NC(=O)CC(C)C)[C@@H](C)O)C(=O)N[C@@H](CO)C(=O)N[C@@H](CC(C)C)C(=O)N[C@@H](CCCNC(=N)N)C(=O)N[C@@H](Cc1c[nH]cn1)C(=O)N[C@@H](Cc1ccc(O)cc1)C(=O)N[C@@H](Cc1ccc(O)cc1)C(=O)N[C@@H](CC(N)=O)C(=O)N[C@@H](Cc1c[nH]c2ccccc12)C(=O)N[C@@H](CC(C)C)C(=O)N[C@H](C(=O)N[C@@H](CCCNC(=N)N)C(=O)N[C@@H](CCC(N)=O)C(=O)N[C@@H](CCCNC(=N)N)C(=O)N[C@@H](Cc1ccc(O)cc1)C(N)=O)[C@@H](C)O [Compound 190, N{alpha-4}-(3-methylbutanoyl)-N{epsilon-7}-(6-[(4S)-4-carboxy-4-(17-carboxyheptadecanamido)butanamido]hexanoyl)-[4A,6A,7K,9E,13T,18Q,22I,28Y,30W,31L]-hPYY(4-36)] | 1.95 | 8.4 | 8.4
CC[C@H](C)[C@H](NC(=O)[C@H](CCC(=O)O)NC(=O)[C@H](CCC(=O)O)NC(=O)[C@@H]1CCCN1C(=O)[C@@H](NC(=O)[C@H](C)NC(=O)[C@H](CC(=O)O)NC(=O)[C@H](CCC(=O)O)NC(=O)[C@H](CCC(=O)O)NC(=O)[C@@H]1CCCN1C(=O)[C@H](CCCCNC(=O)CCCCCNC(=O)CC[C@H](NC(=O)CCCCCCCCCCCCCCCCC(=O)O)C(=O)O)NC(=O)[C@H](CCC(=O)O)NC(=O)[C@@H]1CCCN1C(=O)[C@H](C)NC(=O)CC(C)C)[C@@H](C)O)C(=O)N[C@@H](CCC(N)=O)C(=O)N[C@@H](CCCNC(=N)N)C(=O)N[C@@H](Cc1ccc(O)cc1)C(=O)N[C@@H](Cc1ccc(O)cc1)C(=O)N[C@@H](CCC(=O)O)C(=O)N[C@@H](CO)C(=O)N[C@@H](CC(C)C)C(=O)N[C@@H](CCCNC(=N)N)C(=O)N[C@@H](Cc1c[nH]cn1)C(=O)N[C@@H](Cc1ccc(O)cc1)C(=O)N[C@@H](Cc1ccc(O)cc1)C(=O)N[C@@H](CC(N)=O)C(=O)N[C@@H](Cc1c[nH]c2ccccc12)C(=O)N[C@@H](CC(C)C)C(=O)N[C@H](C(=O)N[C@@H](CCCNC(=N)N)C(=O)N[C@@H](CCC(N)=O)C(=O)N[C@@H](CCCNC(=N)N)C(=O)N[C@@H](Cc1ccc(O)cc1)C(N)=O)[C@@H](C)O [Compound 191, N{alpha-4}-(3-methylbutanoyl)-N{epsilon-7}-(6-[(4S)-4-carboxy-4-(17-carboxyheptadecanamido)butanamido]hexanoyl)-[4A,7K,9E,13T,17I,18Q,22E,28Y,30W,31L]-hPYY(4-36)] | 8.32 | >10.0 | >10.0
